Results reported in patent publication US20130289047A1, “HETEROARYLTHIO DERIVATIVES AND ANALOGUES” (EPIOMED THERAPEUTICS, INC., priority 2010, published 2013).

Legend:
[1] = target: T1, 5HT1A receptor (Homo sapiens, UniProt P08908); assay: Competitive receptor binding, 5HT1A (radiolabeled OH-DPAT); details: for inhibition at 0.1 µM: 100 nM, read-out: Percent inhibition of receptor binding at 100 nM, 5HT1A Receptor Binding
T1 sequence (P08908 1-422): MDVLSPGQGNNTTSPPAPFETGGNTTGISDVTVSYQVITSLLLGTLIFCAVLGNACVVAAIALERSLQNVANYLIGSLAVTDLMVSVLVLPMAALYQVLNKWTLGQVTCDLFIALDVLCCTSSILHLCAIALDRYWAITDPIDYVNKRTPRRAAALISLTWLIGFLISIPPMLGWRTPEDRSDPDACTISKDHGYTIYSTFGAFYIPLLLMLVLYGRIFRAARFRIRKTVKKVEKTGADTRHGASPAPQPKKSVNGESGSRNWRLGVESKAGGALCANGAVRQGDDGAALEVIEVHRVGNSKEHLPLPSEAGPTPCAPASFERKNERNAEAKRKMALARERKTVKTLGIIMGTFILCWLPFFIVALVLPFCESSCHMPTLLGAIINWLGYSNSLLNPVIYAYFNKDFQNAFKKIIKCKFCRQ
Description: (§1) A set of compounds were tested for their ability to inhibit binding of a binding ligand to the 5HT1A, 5HT1D, and 5HT7 receptors in a competitive assay. The tested compounds were placed in the assay with either radiolabeled OH-DPAT (which binds the 5HT1A receptor), radiolabeled serotonin (which binds the 5HT1D receptor), or radiolabeled LSD (lysergic acid diethylamide, which binds the 5HT7 receptor).

[2] = target: 5HT1D receptor (Homo sapiens, UniProt P28221); assay: Competitive receptor binding, 5HT1D (radiolabeled serotonin); details: for inhibition at 0.1 µM: 100 nM, read-out: Percent inhibition of receptor binding at 100 nM, 5HT1D Receptor Binding
Sequence of 5HT1D receptor (P28221 whole entry): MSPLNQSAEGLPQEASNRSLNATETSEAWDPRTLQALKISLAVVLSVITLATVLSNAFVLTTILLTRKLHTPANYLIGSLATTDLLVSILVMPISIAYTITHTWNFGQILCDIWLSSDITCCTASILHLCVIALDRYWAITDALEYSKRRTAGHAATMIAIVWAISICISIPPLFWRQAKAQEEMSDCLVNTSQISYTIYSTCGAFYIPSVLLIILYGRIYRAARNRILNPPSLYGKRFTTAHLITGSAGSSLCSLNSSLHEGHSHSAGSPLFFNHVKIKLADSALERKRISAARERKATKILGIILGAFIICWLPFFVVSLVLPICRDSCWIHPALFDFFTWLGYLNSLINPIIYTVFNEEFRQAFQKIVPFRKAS
Description: as §1

[3] = target: 5HT7 receptor (Homo sapiens, UniProt P34969); assay: Competitive receptor binding, 5HT7 (radiolabeled LSD); details: for inhibition at 0.1 µM: 100 nM, read-out: Percent inhibition of receptor binding at 100 nM, 5HT7 Receptor Binding
Sequence of 5HT7 receptor (P34969 whole entry): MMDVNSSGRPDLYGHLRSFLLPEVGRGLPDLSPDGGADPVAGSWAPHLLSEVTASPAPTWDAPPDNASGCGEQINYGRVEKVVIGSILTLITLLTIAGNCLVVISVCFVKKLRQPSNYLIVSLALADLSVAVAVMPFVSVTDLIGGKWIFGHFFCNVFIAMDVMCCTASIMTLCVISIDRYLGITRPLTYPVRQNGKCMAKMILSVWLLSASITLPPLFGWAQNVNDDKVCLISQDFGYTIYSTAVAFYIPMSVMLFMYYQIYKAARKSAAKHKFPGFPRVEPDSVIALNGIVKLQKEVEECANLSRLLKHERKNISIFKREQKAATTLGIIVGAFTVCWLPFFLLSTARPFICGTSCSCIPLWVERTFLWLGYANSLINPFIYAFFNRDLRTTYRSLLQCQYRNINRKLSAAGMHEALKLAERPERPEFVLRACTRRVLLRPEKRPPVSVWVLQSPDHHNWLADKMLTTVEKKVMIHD
Description: as §1

[4] = tested on: C57 male mice; assay: Condition Avoidance Responding (CAR, active avoidance) model, antipsychotic activity; format: in vivo; details: 10 mg/kg subcutaneously 30 minutes before test session; C57 male mice tested 24 hours after training; FIG. 1
Description: The Condition Avoidance Responding (CAR, active avoidance) model is used as a test for antipsychotic activity. The disruption of avoidance (increased latency) without disruption of escape (extrapyramidal motor function) is a clinical predictor of compounds with antipsychotic activity. The compound of example 10 above (1-[3-(5-Pyridin-4-yl-[1,3,4]oxadiazol-2-ylsulfanyl)propyl]-4-(3-chlorophenyl)piperazine) was evaluated in this model as follows.
(§2) Training of animals (mice) consisted of 20 trials with variable inter-trial intervals (trained to 80% Avoidance Criteria). After a one-minute acclimation period, the house light and an acoustic 90 dB tone (conditioned stimuli) were presented. A response (crossing to a dark compartment) within 5 seconds ended the trial and the trial was recorded as avoidance response (CAR). […] To avoid shock, animals learn to move from the lighted side of the chamber to the dark side when the cue is presented (avoidance) or moved when the shock is administered (escape). Vehicle or test compounds were administered subcutaneously 30 minutes before the test session.
(§3) C57 male mice were tested 24 hours after being trained as described above.

[5] = tested on: C57 male mice; assay: Condition Avoidance Responding (CAR, active avoidance) model, memory; format: in vivo; details: 10 mg/kg subcutaneously 30 minutes before test session; C57 male mice tested 24 hours after training; FIG. 2
Source text: The Condition Avoidance Responding (CAR, active avoidance) model, although primarily a test for detecting anti-psychotic activity, includes an element of training and learning (acquisition of memory), and thus can also be used as a model for testing a compound's effects on learning (acquisition of information) and memory (retention of information). A decrease in the latency of an animal's response indicates an enhancement of an animal's memory of the stimulus. The compound of example 12 above (1-[3-(1-Phenyl-1H-tetrazol-5-ylsulfanyl)propyl]-4-(3-chlorophenyl)piperazine) was evaluated in this model as follows.
as §2, §3

Row | SMILES | inhibition at 0.1 µM [1] | inhibition at 0.1 µM [2] | inhibition at 0.1 µM [3] | latency in CAR (antipsychotic activity) [4] | latency in CAR (memory) [5] | Percent inhibition of receptor binding at 100 nM, 5HT1A Receptor Binding [1] | Percent inhibition of receptor binding at 100 nM, 5HT1D Receptor Binding [2] | Percent inhibition of receptor binding at 100 nM, 5HT7 Receptor Binding [3]
1 | Clc1cccc(N2CCN(CCCSc3nnc(-c4ccncc4)o3)CC2)c1 [Example 10, 1-[3-(5-Pyridin-4-yl-[1,3,4]oxadiazol-2-ylsulfanyl)propyl]-4-(3-chlorophenyl)piperazine] | 97% | 51% | 8% | statistically significant increase in latency |  |  |  | 
2 | Cn1ccnc1SCCCN1CCN(c2cccc(Cl)c2)CC1 [Example 8, 1-[3-(1-Methyl-1H-imidazol-2-ylsulfanyl)propyl]-4-(3-chlorophenyl)piperazine] | 94% | 50% | 82% |  |  |  |  | 
3 | Clc1cccc(N2CCN(CCCSc3nnnn3-c3ccccc3)CC2)c1 [Example 12, 1-[3-(1-Phenyl-1H-tetrazol-5-ylsulfanyl)propyl]-4-(3-chlorophenyl)piperazine] | 75% | 6% | 43% |  | statistically significant decrease in latency |  |  | 
4 | FC(F)(F)c1cccc(N2CCN(CCSc3nnc(-c4ccncc4)o3)CC2)c1 [Example 3, 1-[2-(5-Pyridin-4-yl-[1,3,4]oxadiazol-2-ylsulfanyl)ethyl]-4-(3-trifluoromethylphenyl)piperazine] | 92% | 10% | 25% |  |  |  |  | 
5 | c1ccc(-n2nnnc2SCCCN2CCN(c3nccc4occc34)CC2)cc1 [Example 40, 4-{4-[3-(1-Phenyl-1H-tetrazol-5-ylsulfanyl)propyl]piperazin-1-yl}furo[3,2-c]pyridine] | 97% | 38% | 67% |  |  |  |  | 
6 | Cn1ccnc1SCCCN1CCN(c2nccc3occc23)CC1 [Example 38, 4-{4-[3-(1-Methyl-1H-imidazol-2-ylsulfanyl)propyl]piperazin-1-yl}furo[3,2-c]pyridine] | 71% |  | 81% |  |  |  |  | 
7 | c1cc(-c2nnc(SCCCN3CCN(c4nccc5occc45)CC3)o2)ccn1 [Example 42, 4-{4-[3-(5-Pyridin-4-yl-[1,3,4]oxadiazol-2-sulfanyl)propyl]piperazin-1-yl}furo[3,2-c]pyridine] |  |  |  |  |  | 96% | 65% | 21%
8 | Cn1ccnc1SCCN1CCN(c2cccc(C(F)(F)F)c2)CC1 [Example 1, 1-[2-(1-Methyl-1H-imidazol-2-ylsulfanyl)ethyl]-4-(3-trifluoromethylphenyl)piperazine] | 87% | 52% | 63% |  |  |  |  | 
